From US20250340516A1, “Isoquinolinones as Modulators of POLRMT” (Pretzel Therapeutics, Inc., priority 2024, published 2025)

Target: POLRMT (Homo sapiens (Human), UniProt O00411)
Assay: homogeneous TR-FRET assay of POLRMT inhibition (mitochondrial transcription, 407 bp RNA product)
Assay type: biochemical
Conditions: 7.5 nM POLRMT, 15 nM TFB2M, 30 nM TFAM, 0.5 nM DNA template, 500 μM NTPs, 37° C., 60 minutes, * = aggregation of data sets, read-out: IC50 values for isoquinolinone compounds
Method: The inhibitory activity of the compounds of the present invention against POLRMT were determined by assays based on Bergbrede, T., et al., “An adaptable high-throughput technology enabling the identification of specific transcription modulators,” SLAC Discov., 22, 378-386 (2017).
The ability of some compounds of the present invention to inhibit POLRMT were determined in a homogeneous TR-FRET Assay using high-throughput screening in a 384-well plate format. This method is used to monitor the activity of mitochondrial transcription through measurement of its product, a 407 bp long RNA transcript. Detection of the product is facilitated by hybridization of two DNA-oligonucleotide probes to specific and adjacent sequences within the RNA product sequence. Upon annealing of the probes, two fluorophores are coupled directly to an acceptor nucleotide probe (ATTO647, 5′), or introduced via a coupled streptavidin with a biotinylated donor nucleotide probe (Europium cryptate) that is brought into sufficient proximity to serve as a fluorescence-donor-acceptor pair. Thus, a FRET signal at 665 nm is generated upon excitation at 340 nm.
Proteins used as transcription factors (POLRMT: NP_005026.3, TFAM: NP_003192.1, TFB2M: NP_071761.1) are diluted from their stocks to working concentrations of 1 μM, 20 μM and 4 μM respectively, in a dilution buffer containing 20 mM Tris-HCl (pH 8.0), 200 mM NaCl, 10% (v/v) glycerol, 1 mM Dithiothreitol (DTT), 0.5 mM EDTA.
DNA template is a pUC18 plasmid with the mitochondrial light strand promotor sequence (1-477) cloned between HindIII and BamHI sites. The DNA template is restriction linearized proximal to the promotor 3′-end (pUC-LSP).
The reaction mixture (10 uL) containing 7.5 nM POLRMT, 15 nM of TFB2M, 30 nM of TFAM, 0.5 nM of DNA template and 500 μM nucleotide triphosphate mix (NTPs) in a reaction buffer (containing 10 mM Tris-HCl (pH 7.5), 10 mM MgCl2, 40 mM NaCl, 10 mM DTT, 0.005% (w/v) Tween-20, 160 units/ml Rnase inhibitor and 0.1 mg/mL BSA) are dispensed to compounds in microplates, using a Thermo Multidrop® dispenser, and incubated at 37° C. in a VWR INCU-Line incubator for 60 minutes after mixing. No nucleotide triphosphate mix is added to negative control samples. Microplates with compounds to be tested in the assay are prepared from 10 mM compound stocks in 100% DMSO, equal amounts of DMSO without any compound are added to positive control and negative control samples.
During the incubation, a mix of the detection reagents is prepared in a buffer such that the enzymatic reaction is terminated due to chelating of Mg-ions and increased ionic strength, containing 50 mM Tris-HCl (pH 7.5), 700 mM NaCl, 20 mM EDTA, and 0.01% (w/v) Tween-20. Europium-streptavidin is pre-incubated with a 200-fold molar excess of a random sequence oligonucleotide to block unspecific binding of oligo, for two hours at ambient temperature in the dark. Afterwards, the blocked Europium-streptavidin is kept on ice until use.
At the end of the enzymatic reaction time, 5 μL detection oligo mix in the detection buffer is added, and assay plates are mixed and kept at ambient temperature for one hour, protected from light. The concentration of the Acceptor nucleotide oligo (e.g., ATTO647N-5′-[…]-3′ (SEQ ID NO: 1)) and Donor nucleotide oligo (e.g., bio-5′-AACACATCTCT(-bio)GCCAAACCCCA-bio-3′ (SEQ ID NO: 2)) in each assay well is 1 nM, and 3 nM, respectively.
After incubation with oligo mix, 5 μL of pre-blocked Europium-streptavidin reagent is dispensed to each assay well, assay plates are again mixed and kept at ambient temperature for one hour, protected from light.
The generated signal is measured with BMG Pherastar microtiter plate reader with a TRF light unit, using excitation at 340 nm, an integration time of 200 μs, and a delay time of 100 μs, before detection at 620 nm and 665 nm. The ratio of donor- and acceptor-fluorescence is used as a measure of the generated transcript product (i.e. enzymatic activity).

Sequence of POLRMT (O00411 42-1230): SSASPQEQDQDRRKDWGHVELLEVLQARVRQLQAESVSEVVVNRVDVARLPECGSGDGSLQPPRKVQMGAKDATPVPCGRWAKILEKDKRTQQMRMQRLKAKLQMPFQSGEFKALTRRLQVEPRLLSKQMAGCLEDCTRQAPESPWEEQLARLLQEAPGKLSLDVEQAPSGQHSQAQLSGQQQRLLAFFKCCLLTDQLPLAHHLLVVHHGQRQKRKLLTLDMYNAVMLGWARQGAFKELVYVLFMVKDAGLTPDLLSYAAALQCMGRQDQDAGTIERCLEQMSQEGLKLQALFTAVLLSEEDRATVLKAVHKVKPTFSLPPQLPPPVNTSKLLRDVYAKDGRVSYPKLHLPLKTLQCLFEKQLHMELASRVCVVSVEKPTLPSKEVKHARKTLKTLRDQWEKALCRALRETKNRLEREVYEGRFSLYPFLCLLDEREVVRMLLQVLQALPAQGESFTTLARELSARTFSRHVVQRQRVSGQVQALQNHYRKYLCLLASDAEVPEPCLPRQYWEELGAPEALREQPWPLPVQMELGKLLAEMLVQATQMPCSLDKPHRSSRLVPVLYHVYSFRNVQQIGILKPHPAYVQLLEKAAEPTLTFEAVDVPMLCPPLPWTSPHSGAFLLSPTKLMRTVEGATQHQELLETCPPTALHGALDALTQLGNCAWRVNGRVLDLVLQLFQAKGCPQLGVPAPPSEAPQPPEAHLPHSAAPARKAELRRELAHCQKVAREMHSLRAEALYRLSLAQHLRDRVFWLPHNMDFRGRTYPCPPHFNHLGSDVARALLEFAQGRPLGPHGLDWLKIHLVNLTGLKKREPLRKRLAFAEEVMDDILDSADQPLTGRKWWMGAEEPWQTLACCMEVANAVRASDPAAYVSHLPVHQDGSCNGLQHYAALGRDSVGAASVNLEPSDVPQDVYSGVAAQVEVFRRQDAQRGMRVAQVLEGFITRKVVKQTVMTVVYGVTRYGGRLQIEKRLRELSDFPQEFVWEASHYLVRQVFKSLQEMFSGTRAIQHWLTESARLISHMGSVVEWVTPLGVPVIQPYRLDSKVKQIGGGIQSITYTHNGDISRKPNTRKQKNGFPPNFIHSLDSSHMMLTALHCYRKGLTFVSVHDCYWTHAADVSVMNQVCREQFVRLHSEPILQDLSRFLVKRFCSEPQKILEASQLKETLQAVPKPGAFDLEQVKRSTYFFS

Structure (SMILES) | IC50
Cc1ccccc1-c1c[nH]c(=O)c2cc(O[C@H](C)C(=O)N3CC(C(=O)O)CC(F)(F)C3)ccc12 (single isomer, unassigned) [Example 1] | 60 nM
Cc1ccccc1-c1c[nH]c(=O)c2cc(O[C@H](C)C(=O)N3CC(C(=O)O)CC(F)(F)C3)ccc12 (single isomer, unassigned) [Example 2] | 50 nM
C[C@@H](C(=O)N1CCC[C@H](C(=O)O)C1)N(C)c1ccc2c(-c3ccc(F)cc3Cl)c[nH]c(=O)c2c1 (single isomer, unassigned) [Example 4] | 100 nM
C[C@@H](C(=O)N1CCC[C@H](C(=O)O)C1)N(C)c1ccc2c(-c3ccc(F)cc3Cl)c[nH]c(=O)c2c1 (single isomer, unassigned) [Example 5] | 8000 nM
Cc1ccccc1-c1c[nH]c(=O)c2cc(N(C)[C@@H](C)C(=O)N3CCC[C@H](C(=O)O)C3)ccc12 (single isomer, unassigned) [Example 7] | 200 nM
Cc1ccccc1-c1c[nH]c(=O)c2cc(N(C)[C@@H](C)C(=O)N3CCC[C@H](C(=O)O)C3)ccc12 (single isomer, unassigned) [Example 8] | 93000 nM
C[C@@H](Oc1ccc2c(-c3ccc(F)cc3Cl)c[nH]c(=O)c2c1)C(=O)N1CC(C(N)=O)CC(F)(F)C1 (single isomer, unassigned) [Example 9] | 200 nM
Cc1ccccc1-c1c[nH]c(=O)c2cc(O[C@H](C)C(=O)N3CCCC(CC(=O)O)C3)ccc12 (single isomer, unassigned) [Example 12] | 60 nM
Cc1ccccc1-c1c[nH]c(=O)c2cc(O[C@H](C)C(=O)N3CCCC(CC(=O)O)C3)ccc12 (single isomer, unassigned) [Example 13] | 70 nM
C[C@@H](Oc1ccc2c(-c3ccc(F)cc3Cl)c[nH]c(=O)c2c1)C(=O)N1CCCC(C2(C(=O)O)CC2)C1 (single isomer, unassigned) [Example 36] | 80 nM
C[C@@H](Oc1ccc2c(-c3ccc(F)cc3Cl)c[nH]c(=O)c2c1)C(=O)N1CCCC(C2(C(=O)O)CC2)C1 (single isomer, unassigned) [Example 37] | 50 nM
Cc1ccccc1-c1c[nH]c(=O)c2cc(O[C@H](C)C(=O)N3CCCC(C4(C(N)=O)CC4)C3)ccc12 (single isomer, unassigned) [Example 40] | 20 nM
Cc1ccccc1-c1c[nH]c(=O)c2cc(O[C@H](C)C(=O)N3CCCC(C4(C(N)=O)CC4)C3)ccc12 (single isomer, unassigned) [Example 41] | 40 nM
Cc1ccccc1-c1c[nH]c(=O)c2cc(O[C@H](C)C(=O)N3CCCC(C(C)(C)C(=O)O)C3)ccc12 (single isomer, unassigned) [Example 43] | 20 nM
Cc1ccccc1-c1c[nH]c(=O)c2cc(O[C@H](C)C(=O)N3CCCC(C(C)(C)C(=O)O)C3)ccc12 (single isomer, unassigned) [Example 44] | 60 nM
Cc1ccccc1-c1c[nH]c(=O)c2cc(O[C@H](C)C(=O)N3CCCC(C(C)(C)C(N)=O)C3)ccc12 (single isomer, unassigned) [Example 45] | 30 nM
Cc1ccccc1-c1c[nH]c(=O)c2cc(O[C@H](C)C(=O)N3CCCC(C(C)(C)C(N)=O)C3)ccc12 (single isomer, unassigned) [Example 46] | 40 nM

Structure (SMILES) | IC50
C[C@@H](Oc1ccc2c(-c3ccc(F)cc3Cl)c[nH]c(=O)c2c1)C(=O)N1CCCC(C(C)(C)C(=O)O)C1 (single isomer, unassigned) [Example 50] | 60 nM
C[C@@H](Oc1ccc2c(-c3ccc(F)cc3Cl)c[nH]c(=O)c2c1)C(=O)N1CCCC(C(C)(C)C(=O)O)C1 (single isomer, unassigned) [Example 51] | 300 nM
CCC1(C(=O)O)CCCN(C(=O)[C@@H](C)Oc2ccc3c(-c4ccccc4C)c[nH]c(=O)c3c2)C1 (single isomer, unassigned) [Example 52] | 20 nM
CCC1(C(=O)O)CCCN(C(=O)[C@@H](C)Oc2ccc3c(-c4ccccc4C)c[nH]c(=O)c3c2)C1 (single isomer, unassigned) [Example 53] | 40 nM
CCCC1(C(=O)O)CCCN(C(=O)[C@@H](C)Oc2ccc3c(-c4ccccc4C)c[nH]c(=O)c3c2)C1 (single isomer, unassigned) [Example 66] | 100 nM
CCCC1(C(=O)O)CCCN(C(=O)[C@@H](C)Oc2ccc3c(-c4ccccc4C)c[nH]c(=O)c3c2)C1 (single isomer, unassigned) [Example 67] | 40 nM
Cc1ccccc1-c1c[nH]c(=O)c2cc(O[C@H](C)C(=O)N3CCCCC(N(C)C)C3)ccc12 (single isomer, unassigned) [Example 75] | 3000 nM
Cc1ccccc1-c1c[nH]c(=O)c2cc(O[C@H](C)C(=O)N3CCCCC(N(C)C)C3)ccc12 (single isomer, unassigned) [Example 76] | 2000 nM
CCOC(=O)CN(C)c1ccc2c(-c3ccccc3C)c[nH]c(=O)c2c1 [Example 3, ethyl N-methyl-N-(1-oxo-4-(o-tolyl)-1,2-dihydroisoquinolin-7-yl)glycinate] | 300 nM
CC(=O)N1CC2CC1CN2C(=O)[C@@H](C)Oc1ccc2c(-c3ccc(F)cc3Cl)c[nH]c(=O)c2c1 (stereo partly drawn) [Example 6, 7-(((2R)-1-(5-acetyl-2,5-diazabicyclo[2.2.1]heptan-2-yl)-1-oxopropan-2-yl)oxy)-4-(2-chloro-4-fluorophenyl)isoquinolin-1(2H)-one] | 1000 nM
COc1ccc2c(-c3ccccc3C(C)O)c[nH]c(=O)c2c1 (stereo not shown) [Example 11, 4-(2-(1-hydroxyethyl)phenyl)-7-methoxyisoquinolin-1(2H)-one] | 62000 nM
C[C@@H](Oc1ccc2c(-c3ccc(F)cc3Cl)c[nH]c(=O)c2c1)C(=O)N1CCC(C)(C(=O)O)CC1 [Example 14, (R)-1-(2-((4-(2-chloro-4-fluorophenyl)-1-oxo-1,2-dihydroisoquinolin-7-yl)oxy)propanoyl)-4-methylpiperidine-4-carboxylic acid] | 100 nM
Cc1ccccc1-c1c[nH]c(=O)c2cc(O[C@H](C)C(=O)N3CCC(C)(C(=O)O)CC3)ccc12 [Example 15, (R)-4-methyl-1-(2-((1-oxo-4-(o-tolyl)-1,2-dihydroisoquinolin-7-yl)oxy)propanoyl)piperidine-4-carboxylic acid] | 60 nM
Cc1ccccc1-c1c[nH]c(=O)c2cc(O[C@H](C)C(=O)N3CCN(C(N)=O)CC3)ccc12 [Example 16, (R)-4-(2-((1-oxo-4-(o-tolyl)-1,2-dihydroisoquinolin-7-yl)oxy)propanoyl)piperazine-1-carboxamide] | 100 nM
CC(=O)N(C)CCNC(=O)[C@@H](C)Oc1ccc2c(-c3ccccc3C)c[nH]c(=O)c2c1 [Example 17, (R)-N-(2-(N-methylacetamido)ethyl)-2-((1-oxo-4-(o-tolyl)-1,2-dihydroisoquinolin-7-yl)oxy)propanamide] | 2000 nM
CCN1CCN(C(=O)[C@@H](C)Oc2ccc3c(-c4ccccc4C)c[nH]c(=O)c3c2)CC1 [Example 18, (R)-7-((1-(4-ethylpiperazin-1-yl)-1-oxopropan-2-yl)oxy)-4-(o-tolyl)isoquinolin-1(2H)-one] | 200 nM
CC(=O)NCCN(C)C(=O)[C@@H](C)Oc1ccc2c(-c3ccccc3C)c[nH]c(=O)c2c1 [Example 19, (R)-N-(2-acetamidoethyl)-N-methyl-2-((1-oxo-4-(o-tolyl)-1,2-dihydroisoquinolin-7-yl)oxy)propanamide] | 2000 nM
